Patent US4400199A, “Thiolcarbamate compounds and their use as herbicides” (priority 1981, dated 1983)
≈ marks a conversion by molar mass, not a printed value.

What was measured:
[1] = system: barnyard grass (Echinochloa crus-galli); test: Experiment 1: herbicidal effects against barnyard grass (pot test, emulsifiable concentrate); assay type: in vivo; details: 25 days
barnyard grass = test: Experiment 2: herbicidal effects against barnyard grass (pot test, granules); assay type: in vivo, Echinochloa crus-galli; details: 2.5 leaf-stage, 25 days
broad-leaf weeds = test: Experiment 2: herbicidal effects against broad-leaf weeds (pot test, granules); assay type: in vivo; details: 25 days
[2] = system: Hotarui (Scirpus juncoides); test: Experiment 2: herbicidal effects against Hotarui (pot test, granules); assay type: in vivo; details: 25 days
[3] = system: Mizugayatsuri (Cyperus serotinus); test: Experiment 2: herbicidal effects against Mizugayatsuri (pot test, granules); assay type: in vivo; details: 25 days
[4] = Experiment 3: acute toxicity to fish; assay type: in vivo, Black-carp fry; details: carp, water
Method: With respect to the compounds according to the present invention and the comparative compounds (Compound 10, Compound 12 and Compound 13), there were conducted tests on acute toxicity to carps.
In 25-liter water tanks made of glass was charged 20 liters of water. 12 Black-carp fry were released to each of the water tanks and bred while feeding for 7 days. Then, the whole quantity of water in each of the tanks was replaced with fresh water, and feeding to the carps was stopped. After three days, a prescribed amount of 1 weight % solution of a test compound in acetone was added to water in the water tank.
The number of survival fish in each tank was counted after 24 hours, 48 hours and 96 hours, successively.
The TLm (median tolerance limit=lethal concentration 50%) was determined by the Doudorff's method (Sewage & Ind. Wastes 23 (1951) 1380-1397).

[5] = Experiment 4: subacute toxicity to fish; assay type: in vivo, 2-year-old carps; details: carp, water; 0.2 ppm; 3 weeks; read-out: Survival rate after 3 weeks
Method: (§1) With respect to the compounds according to the present invention and the comparative compounds listed in Table 4, there were conducted tests on subacute toxicity to 2-year-old carps having an average weight of 20 g.
(§2) Ten 2-year-old carps were released in each of 25-liter water tanks equipped with an air-blowing apparatus and acclimatized to the surroundings while feeding for 10 days. Water in each of the water tanks was continuously replaced with fresh water so that the residence time of water in the water tanks is 6 hours. Each test compound was added to a predetermined quantity of supply water to prepare a 0.2 ppm aqueous solution of each compound, and each of the aqueous solutions was continuously added to the water in the tank. After three weeks, the hematocrit values of all the survival carps were determined. The hematocrit value used herein is intended to mean a volume percentage of erythrocyte contained in the blood.

carps = test: Experiment 4: subacute toxicity to fish; assay type: in vivo, 2-year-old carps; details: 0.2 ppm; 3 weeks
Method: as §1, §2

[6] = 1.5 leaf-stage of barnyard grass, 150 g/10a.
[7] = 1.5 leaf-stage of barnyard grass, 300 g/10a.
[8] = 1.5 leaf-stage of barnyard grass, 600 g/10a.
[9] = 3 leaf-stage of barnyard grass, 150 g/10a.
[10] = 3 leaf-stage of barnyard grass, 300 g/10a.
[11] = 3 leaf-stage of barnyard grass, 600 g/10a.

Row | Structure (SMILES) | herbicidal activity (barnyard grass) [1, 6] | herbicidal activity (barnyard grass) [1, 7] | herbicidal activity (barnyard grass) [1, 8] | herbicidal activity (barnyard grass) [1, 9] | herbicidal activity (barnyard grass) [1, 10] | herbicidal activity (barnyard grass) [1, 11] | herbicidal activity (barnyard grass) (barnyard grass; 150 g/10a.) | herbicidal activity (barnyard grass) (barnyard grass; 300 g/10a.) | herbicidal activity (barnyard grass) (barnyard grass; 600 g/10a.) | Herbicidal activity broad-leaf weeds (broad-leaf weeds; 150 g/10a.) | Herbicidal activity broad-leaf weeds (broad-leaf weeds; 300 g/10a.) | Herbicidal activity broad-leaf weeds (broad-leaf weeds; 600 g/10a.) | Herbicidal activity Hotarui (Scirpus juncoides) ([2]; 150 g/10a.) | Herbicidal activity Hotarui (Scirpus juncoides) ([2]; 300 g/10a.) | Herbicidal activity Hotarui (Scirpus juncoides) ([2]; 600 g/10a.) | Herbicidal activity Mizugayatsuri (Cyperus serotinus) ([3]; 150 g/10a.) | Herbicidal activity Mizugayatsuri (Cyperus serotinus) ([3]; 300 g/10a.) | Herbicidal activity Mizugayatsuri (Cyperus serotinus) ([3]; 600 g/10a.) | also measured
1 | CC1CCCCN1C(=O)SCCCCCl (stereo not drawn) [Compound 1, S-(4-chlorobutyl)-(2-methyl)-piperidine-1-carbothioate] | 5 (more than 90%) | 5 (more than 90%) | 5 (more than 90%) | 5 (more than 90%) | 5 (more than 90%) | 5 (more than 90%) | 5 (more than 90%) | 5 (more than 90%) | 5 (more than 90%) | 5 (more than 90%) | 5 (more than 90%) | 5 (more than 90%) | 4 (70 to 89%) | 5 (more than 90%) | 5 (more than 90%) | 4 (70 to 89%) | 4 (70 to 89%) | 5 (more than 90%) | LC50 at 48 h ([4]; 48 hrs, read-out: Median lethal concentration TLm (48hrs)): 11 µg/mL (≈ 44 µM); LC50 at 96 h ([4]; 96 hrs, read-out: Median lethal concentration TLm (96hrs)): 10 µg/mL (≈ 40 µM); survival at 504 h [5]: 100%; Average Hematocrit Value of survival fish (carps): 30%
2 | CC1CCCCN1C(=O)SCCCCCCl (stereo not drawn) [Compound 2, S-(5-chloropentyl)-(2-methyl)-piperidine-1-carbothioate] | 5 (more than 90%) | 5 (more than 90%) | 5 (more than 90%) | 5 (more than 90%) | 5 (more than 90%) | 5 (more than 90%) | 5 (more than 90%) | 5 (more than 90%) | 5 (more than 90%) | 5 (more than 90%) | 5 (more than 90%) | 5 (more than 90%) | 3 (50 to 69%) | 4 (70 to 89%) | 5 (more than 90%) | 3 (50 to 69%) | 4 (70 to 89%) | 5 (more than 90%) | survival at 504 h [5]: 100%; Average Hematocrit Value of survival fish (carps): 30%
3 | CC1CCCCN1C(=O)SCCCCCCCl (stereo not drawn) [Compound 3, S-(6-chlorohexyl)-(2-methyl)-piperidine-1-carbothioate] | 5 (more than 90%) | 5 (more than 90%) | 5 (more than 90%) | 4 (70 to 89%) | 5 (more than 90%) | 5 (more than 90%) | 5 (more than 90%) | 5 (more than 90%) | 5 (more than 90%) | 4 (70 to 89%) | 5 (more than 90%) | 5 (more than 90%) | 3 (50 to 69%) | 4 (70 to 89%) | 5 (more than 90%) | 4 (70 to 89%) | 4 (70 to 89%) | 5 (more than 90%) | 
4 | CC1CCCCN1C(=O)SCCCCCCCCCl (stereo not drawn) [Compound 4, S-(8-chlorooctyl)-(2-methyl)-piperidine-1-carbothioate] | 5 (more than 90%) | 5 (more than 90%) | 5 (more than 90%) | 4 (70 to 89%) | 5 (more than 90%) | 5 (more than 90%) | 4 (70 to 89%) | 5 (more than 90%) | 5 (more than 90%) | 3 (50 to 69%) | 4 (70 to 89%) | 5 (more than 90%) | 2 (30 to 49%) | 4 (70 to 89%) | 5 (more than 90%) | 2 (30 to 49%) | 3 (50 to 69%) | 5 (more than 90%) | 
5 | CC1CCCCN1C(=O)SCCCCCCCCCCCl (stereo not drawn) [Compound 5, S-(10-chlorodecyl)-(2-methyl)-piperidine-1-carbothioate] |  | 5 (more than 90%) | 5 (more than 90%) |  | 4 (70 to 89%) | 5 (more than 90%) |  | 5 (more than 90%) | 5 (more than 90%) |  | 4 (70 to 89%) | 5 (more than 90%) |  | 4 (70 to 89%) | 5 (more than 90%) |  | 3 (50 to 69%) | 5 (more than 90%) | 
6 | CC1CCC(C)CN(C(=O)SCCCCCCCl)C1 (stereo not drawn) [Compound 8, S-(6-chlorohexyl)-3,6-dimethyl-hexahydro-1H-azepine-1-carbothioate] | 5 (more than 90%) | 5 (more than 90%) | 5 (more than 90%) | 5 (more than 90%) | 5 (more than 90%) | 5 (more than 90%) |  |  |  |  |  |  |  |  |  |  |  |  | survival at 504 h [5]: 100%; Average Hematocrit Value of survival fish (carps): 35%
7 | CSC(=O)N1CC(C)CCC(C)C1 (stereo not drawn) [Compound 14, reference compound] |  |  |  |  | 3 (50 to 69%) |  |  |  |  |  |  |  |  |  |  |  |  |  | 
8 | CCSC(=O)N1CC(C)CCC(C)C1 (stereo not drawn) [Compound 15, reference compound] |  |  |  |  | 3 (50 to 69%) |  |  |  |  |  |  |  |  |  |  |  |  |  | 
9 | CCCSC(=O)N1CC(C)CCC(C)C1 (stereo not drawn) [Compound 16, reference compound] |  |  |  |  | 3 (50 to 69%) |  |  |  |  |  |  |  |  |  |  |  |  |  | 
10 | CCCCSC(=O)N1CC(C)CCC(C)C1 (stereo not drawn) [Compound 17, reference compound] |  |  |  |  | 3 (50 to 69%) |  |  |  |  |  |  |  |  |  |  |  |  |  | 
11 | CCCCCCCCCCSC(=O)N1CC(C)CCC(C)C1 (stereo not drawn) [Compound 19, reference compound] |  |  |  |  | 1 (10 to 29%) |  |  |  |  |  |  |  |  |  |  |  |  |  | 
12 | CC1CCC(C)CN(C(=O)SCCCCCCCl)C1 (stereo not drawn) [Compound, S-(6-chlorohexyl)-3,6-dimethyl-hexahydro-1H-azepine-1-carbothioate] |  |  |  |  |  |  | 5 (more than 90%) | 5 (more than 90%) |  | 3 (50 to 69%) | 5 (more than 90%) |  | 3 (50 to 69%) | 5 (more than 90%) |  | 2 (30 to 49%) | 4 (70 to 89%) |  | 
